Source: ChEMBL document CHEMBL4627255, “Efficient synthesis of tert-butyl 3-cyano-3-cyclopropyl-2-oxopyrrolidine-4-carboxylates: Highly functionalized 2-pyrrolidinone enabling access to novel macrocyclic Tyk2 inhibitors” (Bioorg Med Chem Lett, 2020)

Legend:
Homo sapiens [1] = species: Homo sapiens; test: Selectivity index, ratio of IC50 for JAK3 (unknown origin) to IC50 for TYK2 (unknown origin)
[2] = target: Tyrosine-protein kinase JAK1 (Homo sapiens, UniProt P23458); test: Inhibition of JAK1 (unknown origin)
Tyrosine-protein kinase JAK1, sequence (P23458 whole entry): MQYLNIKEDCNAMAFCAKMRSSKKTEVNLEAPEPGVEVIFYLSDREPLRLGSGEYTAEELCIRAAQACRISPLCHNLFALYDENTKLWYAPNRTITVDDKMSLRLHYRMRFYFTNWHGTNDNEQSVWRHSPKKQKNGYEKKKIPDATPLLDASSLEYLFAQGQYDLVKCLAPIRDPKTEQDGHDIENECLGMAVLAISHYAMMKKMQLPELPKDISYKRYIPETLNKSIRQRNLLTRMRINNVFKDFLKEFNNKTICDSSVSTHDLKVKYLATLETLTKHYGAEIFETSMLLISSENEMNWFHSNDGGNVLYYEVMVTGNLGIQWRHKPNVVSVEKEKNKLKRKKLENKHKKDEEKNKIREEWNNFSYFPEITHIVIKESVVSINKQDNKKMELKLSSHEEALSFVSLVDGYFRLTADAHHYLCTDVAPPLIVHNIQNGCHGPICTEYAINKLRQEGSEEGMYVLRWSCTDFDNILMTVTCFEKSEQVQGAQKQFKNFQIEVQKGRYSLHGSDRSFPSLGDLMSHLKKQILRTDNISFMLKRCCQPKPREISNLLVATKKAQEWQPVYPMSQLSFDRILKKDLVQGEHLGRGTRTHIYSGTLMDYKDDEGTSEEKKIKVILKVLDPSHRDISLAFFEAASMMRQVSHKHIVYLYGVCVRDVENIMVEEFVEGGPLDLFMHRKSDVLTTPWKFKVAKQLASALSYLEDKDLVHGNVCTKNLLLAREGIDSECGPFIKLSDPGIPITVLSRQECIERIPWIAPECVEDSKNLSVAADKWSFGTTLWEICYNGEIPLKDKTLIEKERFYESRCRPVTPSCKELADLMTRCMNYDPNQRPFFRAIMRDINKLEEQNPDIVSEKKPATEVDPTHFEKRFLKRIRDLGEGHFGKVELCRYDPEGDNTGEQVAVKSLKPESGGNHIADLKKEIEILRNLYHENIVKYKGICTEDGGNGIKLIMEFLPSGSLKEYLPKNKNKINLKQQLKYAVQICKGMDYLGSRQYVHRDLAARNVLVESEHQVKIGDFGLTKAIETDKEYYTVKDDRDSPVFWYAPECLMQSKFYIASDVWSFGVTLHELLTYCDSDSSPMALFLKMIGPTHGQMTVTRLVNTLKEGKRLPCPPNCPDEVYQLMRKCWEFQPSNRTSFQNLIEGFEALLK

Homo sapiens [3] = species: Homo sapiens; test: Selectivity index, ratio of IC50 for JAK1 (unknown origin) to IC50 for TYK2 (unknown origin)
[4] = target: Tyrosine-protein kinase JAK2 (Homo sapiens, UniProt O60674); test: Inhibition of JAK2 (unknown origin)
Tyrosine-protein kinase JAK2, sequence (O60674 whole entry): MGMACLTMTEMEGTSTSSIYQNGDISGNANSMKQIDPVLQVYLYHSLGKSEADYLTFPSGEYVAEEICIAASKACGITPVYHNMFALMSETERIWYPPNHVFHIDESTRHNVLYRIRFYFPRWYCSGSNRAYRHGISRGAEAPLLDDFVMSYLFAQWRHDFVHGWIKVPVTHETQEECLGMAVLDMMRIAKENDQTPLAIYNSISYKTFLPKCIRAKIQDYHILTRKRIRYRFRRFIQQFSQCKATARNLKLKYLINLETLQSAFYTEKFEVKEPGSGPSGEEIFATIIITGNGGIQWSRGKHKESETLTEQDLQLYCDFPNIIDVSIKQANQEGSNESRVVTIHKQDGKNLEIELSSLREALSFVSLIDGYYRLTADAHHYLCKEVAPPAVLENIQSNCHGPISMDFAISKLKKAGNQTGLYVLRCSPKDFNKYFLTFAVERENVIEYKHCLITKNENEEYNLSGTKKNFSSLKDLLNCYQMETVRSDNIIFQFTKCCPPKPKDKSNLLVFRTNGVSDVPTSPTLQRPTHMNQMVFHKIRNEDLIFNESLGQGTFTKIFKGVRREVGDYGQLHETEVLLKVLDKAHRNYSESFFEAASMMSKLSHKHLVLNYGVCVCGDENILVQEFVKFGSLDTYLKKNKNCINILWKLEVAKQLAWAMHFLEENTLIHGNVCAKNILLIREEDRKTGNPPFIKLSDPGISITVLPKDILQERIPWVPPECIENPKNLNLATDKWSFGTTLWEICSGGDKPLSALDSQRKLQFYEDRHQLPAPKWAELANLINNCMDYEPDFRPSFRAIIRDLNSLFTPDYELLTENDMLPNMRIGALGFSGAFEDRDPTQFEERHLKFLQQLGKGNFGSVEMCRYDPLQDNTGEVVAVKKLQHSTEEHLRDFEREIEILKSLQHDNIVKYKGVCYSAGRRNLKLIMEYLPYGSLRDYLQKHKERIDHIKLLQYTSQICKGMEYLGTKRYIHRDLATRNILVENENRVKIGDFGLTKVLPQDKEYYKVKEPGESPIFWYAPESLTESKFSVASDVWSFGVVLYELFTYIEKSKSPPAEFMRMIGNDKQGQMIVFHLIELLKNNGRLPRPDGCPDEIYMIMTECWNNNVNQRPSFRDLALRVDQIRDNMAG

Homo sapiens [5] = species: Homo sapiens; test: Selectivity index, ratio of IC50 for JAK2 (unknown origin) to IC50 for TYK2 (unknown origin)
[6] = target: T1, Non-receptor tyrosine-protein kinase TYK2 (Homo sapiens, UniProt P29597); test: Inhibition of TYK2 in human Jurkat cells by luciferase reporter gene assay; type: cell-based
T1 sequence (P29597 whole entry): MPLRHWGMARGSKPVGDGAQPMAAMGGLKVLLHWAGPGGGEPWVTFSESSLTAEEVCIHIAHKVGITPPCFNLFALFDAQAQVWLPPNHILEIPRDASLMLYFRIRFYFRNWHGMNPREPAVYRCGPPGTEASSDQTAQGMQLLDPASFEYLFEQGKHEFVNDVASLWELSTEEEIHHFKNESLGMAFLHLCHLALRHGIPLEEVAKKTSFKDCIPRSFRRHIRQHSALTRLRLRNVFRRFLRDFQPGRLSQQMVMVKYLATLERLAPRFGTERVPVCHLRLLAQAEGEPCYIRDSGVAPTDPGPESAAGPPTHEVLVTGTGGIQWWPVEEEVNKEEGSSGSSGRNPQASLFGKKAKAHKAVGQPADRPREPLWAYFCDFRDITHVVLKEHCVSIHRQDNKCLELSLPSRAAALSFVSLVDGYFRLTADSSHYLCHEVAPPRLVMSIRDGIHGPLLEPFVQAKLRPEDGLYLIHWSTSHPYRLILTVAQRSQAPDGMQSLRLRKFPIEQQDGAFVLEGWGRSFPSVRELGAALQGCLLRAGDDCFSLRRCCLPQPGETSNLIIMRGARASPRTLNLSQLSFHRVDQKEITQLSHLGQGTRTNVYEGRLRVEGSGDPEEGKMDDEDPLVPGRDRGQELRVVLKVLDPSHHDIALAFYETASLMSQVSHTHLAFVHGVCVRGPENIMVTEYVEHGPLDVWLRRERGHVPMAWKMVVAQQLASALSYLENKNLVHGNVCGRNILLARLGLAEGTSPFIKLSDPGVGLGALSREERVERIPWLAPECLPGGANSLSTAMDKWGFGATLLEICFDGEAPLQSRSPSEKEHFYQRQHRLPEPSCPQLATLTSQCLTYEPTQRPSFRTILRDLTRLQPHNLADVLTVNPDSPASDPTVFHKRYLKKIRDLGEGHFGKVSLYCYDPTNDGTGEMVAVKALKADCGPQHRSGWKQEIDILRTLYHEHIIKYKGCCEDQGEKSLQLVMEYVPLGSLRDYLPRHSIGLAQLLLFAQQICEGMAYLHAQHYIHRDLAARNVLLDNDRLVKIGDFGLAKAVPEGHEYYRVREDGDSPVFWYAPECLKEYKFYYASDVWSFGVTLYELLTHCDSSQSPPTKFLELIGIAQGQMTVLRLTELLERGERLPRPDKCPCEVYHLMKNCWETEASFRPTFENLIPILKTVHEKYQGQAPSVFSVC

[7] = target: T2, Tyrosine-protein kinase JAK3 (Homo sapiens, UniProt P52333); test: Inhibition of JAK3 (unknown origin)
T2 sequence (P52333 whole entry): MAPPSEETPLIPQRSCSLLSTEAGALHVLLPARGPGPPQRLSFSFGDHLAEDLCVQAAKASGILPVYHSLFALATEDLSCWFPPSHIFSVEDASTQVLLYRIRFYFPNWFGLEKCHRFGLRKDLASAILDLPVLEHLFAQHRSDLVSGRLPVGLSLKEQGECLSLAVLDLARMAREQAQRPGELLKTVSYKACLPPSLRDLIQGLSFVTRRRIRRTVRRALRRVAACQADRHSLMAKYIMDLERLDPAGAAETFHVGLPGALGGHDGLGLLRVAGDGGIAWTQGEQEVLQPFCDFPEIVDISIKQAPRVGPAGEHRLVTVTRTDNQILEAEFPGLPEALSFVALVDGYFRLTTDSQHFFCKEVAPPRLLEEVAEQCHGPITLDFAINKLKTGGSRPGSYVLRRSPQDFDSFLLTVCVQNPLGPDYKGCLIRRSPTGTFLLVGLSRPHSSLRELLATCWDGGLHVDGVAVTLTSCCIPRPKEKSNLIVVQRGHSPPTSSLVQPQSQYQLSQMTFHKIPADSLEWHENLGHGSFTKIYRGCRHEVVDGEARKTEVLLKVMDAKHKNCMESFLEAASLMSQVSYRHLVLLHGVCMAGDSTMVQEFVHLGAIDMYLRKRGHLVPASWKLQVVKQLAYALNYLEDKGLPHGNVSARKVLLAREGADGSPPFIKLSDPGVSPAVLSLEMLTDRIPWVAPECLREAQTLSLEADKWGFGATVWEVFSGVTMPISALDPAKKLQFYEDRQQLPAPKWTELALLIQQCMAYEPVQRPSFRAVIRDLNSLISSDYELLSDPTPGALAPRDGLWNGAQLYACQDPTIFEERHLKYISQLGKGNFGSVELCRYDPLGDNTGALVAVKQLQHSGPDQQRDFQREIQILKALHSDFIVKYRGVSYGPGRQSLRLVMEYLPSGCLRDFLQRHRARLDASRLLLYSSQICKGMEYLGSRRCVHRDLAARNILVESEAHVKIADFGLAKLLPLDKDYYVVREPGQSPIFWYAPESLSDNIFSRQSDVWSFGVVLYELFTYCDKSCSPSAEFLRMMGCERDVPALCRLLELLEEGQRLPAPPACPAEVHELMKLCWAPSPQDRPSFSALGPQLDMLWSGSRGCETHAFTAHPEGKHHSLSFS

[8] = target: T1, Non-receptor tyrosine-protein kinase TYK2; test: Inhibition of TYK2 (unknown origin)

Ratio IC50 (Homo sapiens [1]) | IC50 [2] | Ratio IC50 (Homo sapiens [3]) | IC50 [4] | Ratio IC50 (Homo sapiens [5]) | IC50 [6] | IC50 [7] | IC50 [8] | SMILES
15 | 3000 nM | 23 | 1000 nM | 7.7 | 1300 nM | 1900 nM | 130 nM | N#C[C@]1(C2CC2)C(=O)N2C[C@H]1COCC(=O)NCc1cccc(n1)Nc1cc2ccn1
82 | 710 nM | 140 | 130 nM | 27 | 210 nM | 400 nM | 4.9 nM | N#C[C@]1(C2CC2)C(=O)N2C[C@H]1COCCCCOCc1cccc(n1)Nc1cc2ccn1
15 | 360 nM | 30 | 140 nM | 12 | 440 nM | 180 nM | 12 nM | N#C[C@]1(C2CC2)C(=O)N2C[C@H]1COC/C=C/COCc1cccc(n1)Nc1cc2ccn1
– | – | – | – | – | – | – | 1.1 nM | CN(C)C(=O)c1ccc(Nc2cc(N3CC[C@@](C#N)(C4CC4)C3=O)ccn2)nc1
52 | 580 nM | 110 | 130 nM | 25 | 260 nM | 270 nM | 5.2 nM | N#C[C@]1(C2CC2)C(=O)N2C[C@H]1COC/C=C\COCc1cccc(n1)Nc1cc2ccn1
5.7 | 910 nM | 40 | 180 nM | 7.8 | 210 nM | 130 nM | 23 nM | N#C[C@]1(C2CC2)C(=O)N2C[C@H]1COCC(=O)NCCc1cccc(n1)Nc1cc2ccn1
7.8 | 130 nM | 24 | 100 nM | 18 | 180 nM | 43 nM | 5.5 nM | N#C[C@]1(C2CC2)C(=O)N2C[C@H]1COCC(=O)NCCCc1cccc(n1)Nc1cc2ccn1
